Test results from ChEMBL document CHEMBL5625207, “RIPK2 inhibitors for disease therapy: Current status and perspectives” (Eur J Med Chem, 2023).
Blank lines part the entries; values can stand above or below the molecule they belong to.

Experiments:
[1] = molecular target: T1, Receptor-interacting serine/threonine-protein kinase 2 (Homo sapiens, UniProt O43353); experiment: Inhibition of full length FLAG His-tagged RIPK2 (unknown origin) expressed in Baculovirus by fluorescence polarization assay
[2] = molecular target: T1, Receptor-interacting serine/threonine-protein kinase 2; experiment: Inhibition of RIPK2 (unknown origin)
[3] = molecular target: T1, Receptor-interacting serine/threonine-protein kinase 2; experiment: Inhibition of RIPK2 (unknown origin) by ADP-Glo assay
[4] = molecular target: T1, Receptor-interacting serine/threonine-protein kinase 2; experiment: Inhibition of RIPK2 (unknown origin) expressed in Escherichia coli
[5] = molecular target: T1, Receptor-interacting serine/threonine-protein kinase 2; experiment: Inhibition of RIPK2 (unknown origin) using (CRRKSLVGTPYWMAPE) peptide as substrate pre-incubated for 60 mins followed by substrate addition and measured after 2 hrs by fluorescence polarization assay
[6] = molecular target: von Hippel-Lindau disease tumor suppressor/Receptor-interacting serine/threonine-protein kinase 2 (Homo sapiens, UniProt O43353+P40337); experiment: Protac activity at VHL/RIPK2 in human THP-1 cells assessed as RIPK2 degradation measured after 16 hrs by Western blot analysis; type: cell-based
Chain of von Hippel-Lindau disease tumor suppressor/Receptor-interacting serine/threonine-protein kinase 2 (O43353 whole entry): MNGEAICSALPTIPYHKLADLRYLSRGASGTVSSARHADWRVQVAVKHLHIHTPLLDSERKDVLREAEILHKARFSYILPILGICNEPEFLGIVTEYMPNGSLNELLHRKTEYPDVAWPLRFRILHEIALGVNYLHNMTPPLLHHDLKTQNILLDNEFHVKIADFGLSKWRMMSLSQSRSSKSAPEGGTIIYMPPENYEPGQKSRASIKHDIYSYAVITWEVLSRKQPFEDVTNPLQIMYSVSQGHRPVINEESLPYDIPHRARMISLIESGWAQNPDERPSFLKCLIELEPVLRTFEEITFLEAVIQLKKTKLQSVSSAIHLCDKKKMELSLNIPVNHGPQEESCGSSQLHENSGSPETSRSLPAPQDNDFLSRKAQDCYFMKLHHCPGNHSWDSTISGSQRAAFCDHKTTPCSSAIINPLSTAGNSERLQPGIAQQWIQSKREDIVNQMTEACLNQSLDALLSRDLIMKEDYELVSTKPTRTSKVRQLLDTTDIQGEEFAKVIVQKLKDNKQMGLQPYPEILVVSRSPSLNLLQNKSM
Chain of von Hippel-Lindau disease tumor suppressor/Receptor-interacting serine/threonine-protein kinase 2 (P40337 whole entry): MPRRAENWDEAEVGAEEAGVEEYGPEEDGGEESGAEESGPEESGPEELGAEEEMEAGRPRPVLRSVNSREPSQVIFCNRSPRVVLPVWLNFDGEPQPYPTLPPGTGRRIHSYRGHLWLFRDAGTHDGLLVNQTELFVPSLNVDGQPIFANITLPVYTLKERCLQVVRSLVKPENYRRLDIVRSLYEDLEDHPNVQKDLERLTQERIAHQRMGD

T1 sequence (O43353 whole entry): as the sequence (O43353 whole entry) above

Structure (SMILES): c1cc2cc(n1)NCCOCCNc1ccc3ncc-2n3n1
IC50 [4]: 14.1 nM
IC50 [1]: 14.1 nM

Structure (SMILES): Cc1ccc(-c2nn(C(C)(C)CN(C)C)c3ncnc(N)c23)cc1
IC50 [1]: 10 nM
IC50 [5]: 1010 nM

Structure (SMILES): Cc1ncsc1-c1ccc(CNC(=O)C2C[C@H](O)CN2C(=O)[C@@H](NC(=O)COCCOCCOCCOCCOc2cc3nccc(Nc4ccc5scnc5c4)c3cc2S(=O)(=O)C(C)(C)C)C(C)(C)C)cc1 (some centres undefined)
IC50 [6]: 2 nM

The remaining molecules from weak to strong by IC50 [1], led by results:

IC50 [3]: 5.1 nM
IC50 [1]: 5.1 nM
Structure (SMILES): c1cc(-c2ccc3ncnc(Nc4ccc5scnc5c4)c3c2)ccn1

IC50 [1]: 0.6 nM
IC50 [2]: 0.6 nM
Structure (SMILES): Cc1ccc(-c2cn([C@H]3CC[C@@H](N)CC3)c3ncnc(N)c23)c(F)c1
